{"source": "patent US20220079925A1", "about": "“COMPOSITIONS COMPRISING TACROLIMUS FOR THE TREATMENT OF INTRAOCULAR INFLAMMATORY EYE DISEASES” (NOVALIQ GMBH, priority 2016, published 2022)", "origin": "cited, not measured here", "key": {"[1]": {"settings": "topical administration"}, "T-lymphocyte": {"system": "T-lymphocyte", "settings": "inhibiting T-lymphocyte signal transduction and cell proliferation"}}, "data": [{"smiles": "C=CC[C@@H]1/C=C(\\C)C[C@H](C)C[C@H](OC)[C@H]2O[C@@](O)(C(=O)C(=O)N3CCCC[C@H]3C(=O)O[C@H](/C(C)=C/[C@@H]3CC[C@@H](O)[C@H](OC)C3)[C@H](C)[C@@H](O)CC1=O)[C@H](C)C[C@@H]2OC", "note": "[Tacrolimus]", "values": [{"measurement": "ability to penetrate tissue barrier", "setting": "[1]", "value": "poor"}, {"measurement": "potency relative to cyclosporine", "setting": "T-lymphocyte", "value": 100, "unit": "times"}]}]}
